In patent US20040147434A1, “Use of enzyme inhibitors of the dipeptidypeptidase iv (ec3.3.14.5) in addition to the aminopeptidase n (ec 3.4.11.2), individually or in a combination thereof, and pharmaceutical preparations thereof for the prevention and/or therapy of ischaemia-caused acute and chronic neurodegenerative process …” (priority 2001, published 2004):

Experiments:
[1] = tested on: peripheric mononuclear cells (MNC) or T lymphocytes; settings: simultaneous and separate administration of inhibitors of DP IV and APN; cited from earlier work
[2] = tested on: hippocampal neurons; experiment: Neuroprotection in organotypical hippocampus slices after 40 min oxygen and glucose deprivation (propidium iodide fluorescence); type: cell-based, rat; settings: exclusively actinonine (10 μm), 24 h before, during and 24 h after ischemia; n=5 experiments
Procedure: FIG. 2: Protective effect of inhibitors of DP IV (I63) and APN (actinonine) on the survival of hippocampal neurons after a transient deprivation of oxygen and glucose: There are shown in the FIG. transmission photographs (respective left sides) and fluorescence photographs (respective right sides) of hippocampus slices 24 h after an experimental ischemia. The intensity of the red fluorescence corresponds to the neuronal cell damage (B, D). The slices shown in FIGS. 2A and 2B were subjected to a 40 min deprivation of oxygen and glucose in the absence of DP IV or APN inhibitors. […] The protective effect occurring at a simultaneous application of I63 and actinonine is significant (P=0,0000; calculated by means of a two side heteroscedastic t test) and is about 62%.
Organotypical hippocampus slices were prepared and cultivated according to Striggow F et al. (Striggow, F, Riek M, Breder J, Henrich-Noak P, Reymann K G, Reiser G (2000). The protease thrombin is an endogenous mediator of hippocampal neuroprotection against ischemia at low concentrations but causes degeneration at high concentrations. Proc. Natl. Acad. Sci. (USA) 97: 2264-2269). […] Only after said time, there occurrs a characteristic red fluorescence, the intensity of which is proportional to the neuronal cell damage. […]

## N[C@@H](CCCCNC(=O)OCc1ccc([N+](=O)[O-])cc1)C(=O)N1CCSC1 [I49, Lys[Z(NO2)] thiazolidide]
[1]
  DNA synthesis and proliferation of human immune cells: inhibited

## CCCCC[C@H](CC(=O)NO)C(=O)N[C@H](C(=O)N1CCC[C@H]1CO)C(C)C [actinonine]
[1]
  DNA synthesis and proliferation of human immune cells: inhibited
[2]
  protective effect on the survival of hippocampal neurons after transient ischemia: about 34%
